The values that follow come from ChEMBL document CHEMBL6074677, “Development of dual V1a/V2 antagonists containing triazolobenzazepine scaffold” (Eur J Med Chem, 2025).

Bounds are passed on as bounds.

A short description of series [1]: Metabolic stability in mouse liver microsomes assessed as intrinsic clearance at 1 uM in presence of NADPH. Conditions: read-out: CLH. It is filed as ADME, Microsome. (In general: Liver microsomes are a subcellular fraction often used to study metabolism.)
The target of series [2] is Vasopressin V1a receptor (Mus musculus) (UniProt Q62463). Briefly: In vivo antagonist activity at vasopressin V1a receptor in male NMRI mouse assessed as inhibition of oxytocin-induced scratching behavior at 3 mg/kg, po pretreated with compound for 60 mins followed by oxytocin administration and measured after 1 hrs relative to control. It is filed as functional, organism-based. Conditions: time 120.0 min.

In the next series the target is Vasopressin V2 receptor (Homo sapiens, UniProt P30518). Briefly: Displacement of [3H]AVP from human vasopressin V2 receptor expressed in human 1321N1 cells assessed as inhibition constant. It is filed as cell-based. Background: Loss of bound radioactivity is the signal in a displacement assay; it reports binding, not function.
Series [3] in a line: Metabolic stability in human liver microsomes assessed as intrinsic clearance at 1 uM in presence of NADPH. It is filed as ADME, Microsome. Conditions: read-out: CLH.
In series [4] the target is T1, Vasopressin V1a receptor (Homo sapiens, UniProt P37288). Briefly: Displacement of [3H]AVP from human vasopressin V1a receptor expressed in human 1321N1 cells assessed as inhibition constant. It is filed as cell-based.
Series [5] has as its target Vasopressin V1a receptor (Mus musculus, UniProt Q62463). Briefly: Displacement of [3H]AVP from mouse vasopressin V1a receptor expressed in human 1321N1 cells assessed as inhibition constant. It is filed as cell-based.
Series [6] concerns the target T1, Vasopressin V1a receptor. Briefly: Displacement of [3H]AVP from human vasopressin V1a receptor expressed in human 1321N1 cells. The format is cell-based.
Series [7] can be described thus: Metabolic stability in rat liver microsomes assessed as intrinsic clearance at 1 uM in presence of NADPH. The format is ADME, Microsome. Conditions: read-out: CLH.
Series [8] deals with Vasopressin V1a receptor (Mus musculus) (UniProt Q62463). Briefly: In vivo antagonist activity at vasopressin V1a receptor in male NMRI mouse assessed as inhibition of oxytocin-induced scratching behavior at 1 mg/kg, po pretreated with compound for 60 mins followed by oxytocin administration and measured after 1 hrs relative to control. It is filed as functional, organism-based. The conditions noted are these: time 120.0 min.

For series [9] the target is unchanged. Briefly: In vivo antagonist activity at vasopressin V1a receptor in male NMRI mouse assessed as inhibition of oxytocin-induced scratching behavior at 0.3 mg/kg, po pretreated with compound for 60 mins followed by oxytocin administration and measured after 1 hrs relative to control. The format is functional, organism-based. Conditions: time 120.0 min.
For series [10] the target is unchanged. Briefly: In vivo antagonist activity at vasopressin V1a receptor in male NMRI mouse assessed as inhibition of oxytocin-induced scratching behavior at 0.1 mg/kg, po pretreated with compound for 60 mins followed by oxytocin administration and measured after 1 hrs relative to control. It is filed as functional, organism-based. The conditions noted are these: time 120.0 min.

Series [11] concerns the target Voltage-gated inwardly rectifying potassium channel KCNH2 (Homo sapiens, UniProt Q12809). Briefly: Inhibition of human ERG expressed in CHO cells at -80 mV holding potential measured for 7 to 10 mins by automated patch clamp method. The format is toxicity, cell-based.
Series [12] in a line: Apparent permeability across apical to basolateral side in vinblastine treated human Caco-2 cells incubated for 15 to 60 mins by HPLC analysis. Conditions: time 15-60 min. It is filed as ADME, cell-based. For orientation: Caco-2 cells form a polarised layer with tight junctions and transporters.

Vasopressin V1a receptor (Mus musculus), sequence (Q62463 whole entry, looked up): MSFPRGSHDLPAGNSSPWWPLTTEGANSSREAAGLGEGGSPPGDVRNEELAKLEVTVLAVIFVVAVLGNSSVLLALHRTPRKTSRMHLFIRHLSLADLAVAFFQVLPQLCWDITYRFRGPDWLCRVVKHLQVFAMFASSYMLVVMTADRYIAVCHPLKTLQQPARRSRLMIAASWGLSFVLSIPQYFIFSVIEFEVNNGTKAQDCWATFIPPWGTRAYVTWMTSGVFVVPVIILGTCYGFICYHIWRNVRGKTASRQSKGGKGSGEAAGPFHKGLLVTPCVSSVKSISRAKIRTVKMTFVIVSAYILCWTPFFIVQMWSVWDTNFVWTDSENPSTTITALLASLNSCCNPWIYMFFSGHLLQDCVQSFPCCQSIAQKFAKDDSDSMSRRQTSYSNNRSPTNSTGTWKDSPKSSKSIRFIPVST
T1 sequence (P37288 whole entry): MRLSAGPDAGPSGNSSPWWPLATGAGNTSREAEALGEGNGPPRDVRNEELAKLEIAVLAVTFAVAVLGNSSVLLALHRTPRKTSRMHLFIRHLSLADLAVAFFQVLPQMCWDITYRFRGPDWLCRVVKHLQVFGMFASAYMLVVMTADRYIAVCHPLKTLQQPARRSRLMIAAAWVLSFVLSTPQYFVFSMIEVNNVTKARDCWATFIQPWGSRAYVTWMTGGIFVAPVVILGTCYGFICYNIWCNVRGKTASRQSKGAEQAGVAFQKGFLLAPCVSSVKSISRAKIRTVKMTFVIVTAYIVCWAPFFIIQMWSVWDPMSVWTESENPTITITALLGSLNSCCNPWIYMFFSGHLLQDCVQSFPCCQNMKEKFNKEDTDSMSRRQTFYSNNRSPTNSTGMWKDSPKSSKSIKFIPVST
Vasopressin V2 receptor, sequence (P30518 whole entry): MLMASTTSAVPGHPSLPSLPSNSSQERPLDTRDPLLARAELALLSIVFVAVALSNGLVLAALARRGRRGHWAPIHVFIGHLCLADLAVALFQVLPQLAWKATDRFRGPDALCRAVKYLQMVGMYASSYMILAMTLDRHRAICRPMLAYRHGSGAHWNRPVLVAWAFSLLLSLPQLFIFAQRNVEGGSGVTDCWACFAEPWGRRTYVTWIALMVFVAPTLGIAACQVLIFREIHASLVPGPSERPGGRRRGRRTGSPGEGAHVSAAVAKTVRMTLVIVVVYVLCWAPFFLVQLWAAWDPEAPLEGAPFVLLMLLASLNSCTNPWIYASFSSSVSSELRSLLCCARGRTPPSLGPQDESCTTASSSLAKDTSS
Voltage-gated inwardly rectifying potassium channel KCNH2, sequence (Q12809 whole entry): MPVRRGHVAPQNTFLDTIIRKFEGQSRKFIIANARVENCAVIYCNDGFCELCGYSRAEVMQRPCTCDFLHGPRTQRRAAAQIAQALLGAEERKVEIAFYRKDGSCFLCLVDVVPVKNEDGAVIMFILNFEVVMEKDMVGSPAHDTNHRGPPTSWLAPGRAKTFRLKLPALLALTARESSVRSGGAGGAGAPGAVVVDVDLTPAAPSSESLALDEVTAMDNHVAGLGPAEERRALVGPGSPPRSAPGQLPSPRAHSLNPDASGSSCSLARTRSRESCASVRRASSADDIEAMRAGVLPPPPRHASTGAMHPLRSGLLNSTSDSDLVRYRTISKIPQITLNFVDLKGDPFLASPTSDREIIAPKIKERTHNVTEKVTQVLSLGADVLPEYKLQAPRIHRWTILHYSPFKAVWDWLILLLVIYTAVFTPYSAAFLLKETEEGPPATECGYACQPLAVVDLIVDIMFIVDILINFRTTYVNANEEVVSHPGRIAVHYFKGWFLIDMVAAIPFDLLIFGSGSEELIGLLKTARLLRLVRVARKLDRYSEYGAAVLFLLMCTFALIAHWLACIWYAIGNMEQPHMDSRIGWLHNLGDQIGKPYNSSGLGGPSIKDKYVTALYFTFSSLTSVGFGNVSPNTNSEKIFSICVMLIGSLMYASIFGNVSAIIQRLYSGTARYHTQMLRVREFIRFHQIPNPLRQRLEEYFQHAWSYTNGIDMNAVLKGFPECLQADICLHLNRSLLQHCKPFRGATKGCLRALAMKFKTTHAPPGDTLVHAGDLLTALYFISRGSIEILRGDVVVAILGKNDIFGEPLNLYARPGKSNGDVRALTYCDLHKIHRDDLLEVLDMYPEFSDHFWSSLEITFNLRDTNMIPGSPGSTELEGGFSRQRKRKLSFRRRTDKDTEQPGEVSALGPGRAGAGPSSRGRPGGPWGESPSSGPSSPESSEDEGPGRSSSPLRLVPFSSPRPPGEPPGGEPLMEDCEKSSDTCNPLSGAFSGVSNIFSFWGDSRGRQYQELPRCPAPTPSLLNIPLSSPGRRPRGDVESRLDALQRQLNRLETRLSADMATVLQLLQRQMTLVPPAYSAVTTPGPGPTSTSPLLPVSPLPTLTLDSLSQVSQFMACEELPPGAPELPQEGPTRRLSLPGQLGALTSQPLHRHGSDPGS
Vasopressin V1a receptor (Mus musculus, UniProt Q62463), sequence (Q62463 whole entry): as the sequence (Q62463 whole entry, looked up) above

What is called inhibition is the share of the control response that was lost under treatment. What is called Ki is the dissociation constant of the complex between target and ligand, obtained from inhibition or displacement. The term IC50 denotes the concentration needed to halve the response being measured. What is called Papp A→B is how fast a substance crosses the layer from the apical side. In the case of `Clc1ccc2c(c1)CC1(Cc3nnc(N4CCN(c5cccc6c5OCC6)CC4)n3-2)OCCO1`, the values for the microsomal CLint at 1 µM in series [1], in [3] and in [7] were 27.1 µL/min/mg, 15.9 µL/min/mg and 36.9 µL/min/mg, respectively. The inhibition was determined as 86% in [2], 91% in [8], 85% in series [9] and 81% in series [10]. Also, the Ki on Vasopressin V2 receptor was 0.53 nM; at Vasopressin V1a receptor [4], 0.13 nM; at Vasopressin V1a receptor [5], 0.5 nM. Besides, the IC50 is 2.2 nM at Vasopressin V1a receptor [6] and over 30000 nM in series [11]. Also, in series [12], the Papp A→B came out at 30 ×10⁻⁶ cm/s.
